Laboratory results from ChEMBL document CHEMBL4513139, “CO-ADD screening of University of Strathclyde (UK) compounds”.
≈ marks a conversion by molar mass, not a printed value.

Experiments:
Escherichia coli = test: microbe, parasite or virus in culture; conditions: ATCC 25922, 18 h, ASSAY_TEST Inhibition of Bacterial Growth, detection method Absorption (OD600), MEDIA CAMHB, plate type 384well, NBS, CORNING #3640
Description: Antibacterial activity against Escherichia coli ATCC 25922 (CO-ADD:GN_001); MIC in CAMBH media using NBS plates, by OD(600)

HEK293 = test: cells; format: functional, Homo sapiens, ATCC CRL1573; conditions: Homo sapiens, ATCC CRL1573, HEK293; ASSAY_TEST Inhibition of Cell Viability; detection method Resazurin; Fluorescence (ex560/em590); MEDIA DMEM with 10% FBS; plate type 384well; TC; CORNING #3712; time 18 hr; read-out: CC50
Klebsiella pneumoniae = test: microbe, parasite or virus in culture; conditions: ATCC 700603, 18 h, ASSAY_TEST Inhibition of Bacterial Growth, detection method Absorption (OD600), MEDIA CAMHB, plate type 384well, NBS, CORNING #3640
Description: Antibacterial activity against Klebsiella pneumoniae MDR ATCC 70063 (CO-ADD:GN_003); MIC in CAMBH media using NBS plates, by OD(600)

Acinetobacter baumannii = test: microbe, parasite or virus in culture; conditions: ATCC 19606, 18 h, ASSAY_TEST Inhibition of Bacterial Growth, detection method Absorption (OD600), MEDIA CAMHB, plate type 384well, NBS, CORNING #3640
Description: Antibacterial activity against Acinetobacter baumannii ATCC 19606 (CO-ADD:GN_034); MIC in CAMBH media using NBS plates, by OD600

Candida albicans = test: microbe, parasite or virus in culture; conditions: ATCC 90028, ASSAY_TEST Inhibition of Fungal Growth, detection method Absorption (OD530), plate type 384well, NBS, CORNING #3640
Description: Antifungal activity against Candida albicans ATCC 90028 (CO-ADD:FG_001); MIC in YNB media using NBS plates, by OD630

Staphylococcus aureus = test: microbe, parasite or virus in culture; conditions: ATCC 43300, 18 h, ASSAY_TEST Inhibition of Bacterial Growth, detection method Absorption (OD600), MEDIA CAMHB, plate type 384well, NBS, CORNING #3640
Description: Antibacterial activity against Staphylococcus aureus MRSA ATCC 43300 (CO-ADD:GP_020); MIC in CAMBH media, using NBS plates, by OD(600)

Pseudomonas aeruginosa = test: microbe, parasite or virus in culture; conditions: ATCC 27853, 18 h, ASSAY_TEST Inhibition of Bacterial Growth, detection method Absorption (OD600), MEDIA CAMHB, plate type 384well, NBS, CORNING #3640
Description: Antibacterial activity against Pseudomonas aeruginosa ATCC 27853 (CO-ADD:GN_042); MIC in CAMBH media using NBS plates, by OD(600)

Description for Cryptococcus neoformans: Antifungal activity against Cryptococcus neoformans H99 ATCC 208821 (CO-ADD:FG_002); MIC in YNB media using NBS plates, by Resazurin OD(600-570)

Row | Compound | MIC (Escherichia coli) | CC50 (HEK293) | MIC (Klebsiella pneumoniae) | MIC (Acinetobacter baumannii) | MIC (Candida albicans) | MIC (Cryptococcus neoformans) | MIC (Staphylococcus aureus) | MIC (Pseudomonas aeruginosa)
1 | CC(C)CCn1cc(NC(=O)c2cc(NC(=O)c3cc(NC(=N)c4cnc5ccccc5c4)cn3C)cn2C)cc1C(=O)NCCCN(C)C.O=C(O)C(F)(F)F.O=C(O)C(F)(F)F | 32 µg/mL | 11.6 µg/mL | > 32 µg/mL | > 32 µg/mL | > 32 µg/mL | 8 µg/mL | 32 µg/mL | > 32 µg/mL
2 | CN(C)c1ccc(/C=C/c2ccc(C(=O)Nc3cc(C(=O)Nc4cc(C(=O)NCCN5CCOCC5)n(C)c4)n(C)c3)cn2)cc1.O=C(O)C(F)(F)F | > 32 µg/mL | 1.11 µg/mL | > 32 µg/mL | > 32 µg/mL | 2 µg/mL | 1 µg/mL | 1 µg/mL | > 32 µg/mL
3 | Cn1cc(NC(=O)c2cc(NC(=N)c3cnc4ccccc4c3)cn2C)cc1C(=O)NCCC(=N)N.O=C(O)C(F)(F)F.O=C(O)C(F)(F)F.O=C(O)C(F)(F)F | > 32 µg/mL | > 32 µg/mL | > 32 µg/mL | > 32 µg/mL | > 32 µg/mL | > 32 µg/mL | > 32 µg/mL | > 32 µg/mL
4 | CC(C)CCc1sc(NC(=O)c2cc(NC(=O)c3cc(NC(=N)c4ccccc4)cn3C)cn2C)nc1C(=O)NCCCN(C)C.O=C(O)C(F)(F)F.O=C(O)C(F)(F)F | > 32 µg/mL | > 32 µg/mL | > 32 µg/mL | > 32 µg/mL | > 32 µg/mL | 4 µg/mL | > 32 µg/mL | > 32 µg/mL
5 | COC1CCN(CCNC(=O)c2cc(NC(=O)c3cc(NC(=O)c4ccc(/C=C/c5ccc(N(C)C)cc5)nc4)cn3C)cn2C)CC1.O=C(O)C(F)(F)F.O=C(O)C(F)(F)F | > 32 µg/mL | 1.28 µg/mL | > 32 µg/mL | > 32 µg/mL | 2 µg/mL | 2 µg/mL | ≤ 0.25 µg/mL | > 32 µg/mL
6 | CC(C)n1cc(NC(=O)c2cc(NC=O)cn2C)cc1C(=O)Nc1cc(C(=O)NCCCN(C)C)n(C)c1.O=C(O)C(F)(F)F | > 32 µg/mL | > 32 µg/mL | > 32 µg/mL | > 32 µg/mL | > 32 µg/mL | > 32 µg/mL | > 32 µg/mL | > 32 µg/mL
7 | COc1ccc(C(=N)Nc2cc(C(=O)Nc3cc(C(=O)NCCN4CCOCC4)n(CCCc4cn(CCc5ccccc5)nn4)c3)n(C)c2)cc1.O=C(O)C(F)(F)F.O=C(O)C(F)(F)F | > 32 µg/mL | > 32 µg/mL | > 32 µg/mL | > 32 µg/mL | > 32 µg/mL | > 32 µg/mL | > 32 µg/mL | > 32 µg/mL
8 | CC(=O)Nc1cc(C(=O)Nc2cc(C(=O)Nc3nc(C(=O)NCCCN(C)C)c(CCC(C)C)s3)n(C)c2)n(C)c1 | > 32 µg/mL | > 32 µg/mL | > 32 µg/mL | > 32 µg/mL | > 32 µg/mL | 16 µg/mL (≈ 27.4 µM) | 16 µg/mL (≈ 27.4 µM) | > 32 µg/mL
9 | COc1ccc(/C=C/c2ccc(C(=O)Nc3cc(C(=O)Nc4cc(C(=O)NCCN5CCC(OC)CC5)n(C)c4)n(C)c3)cn2)cc1.O=C(O)C(F)(F)F.O=C(O)C(F)(F)F | > 32 µg/mL | 2.7 µg/mL | > 32 µg/mL | > 32 µg/mL | > 32 µg/mL | > 32 µg/mL | 1 µg/mL | > 32 µg/mL
10 | Cn1cc(NC(=O)c2cc(NC(=O)c3ccc(/C=C/c4ccc(C(F)(F)F)cc4)cc3)cn2C)cc1C(=O)NCCN1CCOCC1.O=C(O)C(F)(F)F | > 32 µg/mL | > 32 µg/mL | > 32 µg/mL | > 32 µg/mL | > 32 µg/mL | > 32 µg/mL | > 32 µg/mL | > 32 µg/mL
11 | CC(C)n1cc(NC(=O)c2cc(NC(=O)c3ccc(/C=C/c4cnc5ccccc5c4)cc3)cn2C)cc1C(=O)NCCN1CCOCC1.O=C(O)C(F)(F)F.O=C(O)C(F)(F)F | > 32 µg/mL | 2.81 µg/mL | > 32 µg/mL | > 32 µg/mL | 32 µg/mL | 16 µg/mL | 1 µg/mL | > 32 µg/mL
